How the values were obtained:
Format in all cases: cell-based
Conditions in all cases: 72 h, mean ±SD
[1] = system: HepG2 (human hepatocellular carcinoma); experiment: Cytotoxic activity, MTT assay, HepG2
Protocol: (§1) The cytotoxic of compounds of formulas (I) and (II) 14-50 was assessed towards human cancer (HepG2, HeLa and Jurkat) cell lines (Table 3 below). Compounds presented on Table 4 were also tested against a non-tumoral liver cell line (Chang liver). The cell viability of HeLa, HepG2 and Chang liver cells was determined by the MTT assay. Briefly, exponentially growing cells were plated in 96-well plates at a density of 1×10^3, 8×10^3 and 5×10^3 cells/well respectively and incubated for 24 h before treatment. The grown medium was replaced with one contained the tested compounds dissolved in DMSO (final DMSO concentration <0.1%) at different concentrations, in triplicate wells, and cells were incubated for 72 h. After incubation with the compounds, the medium was removed and MTT solution (0.5 mg/ml, 100 μl) was added to each well and the plates were incubated again for 1 h. DMSO (100 μl) was then added to dissolve the formazan crystals and the plates were immediately read at 550 nm on an ELISA plate reader (Tecan Sunrise MR20-301, TECAN, Austria). For the Jurkat cells, the cell viability was determined by the XTT assay. Briefly, exponentially growing cells were plated in 96-well plates at a density of 5.5×10^3 cells/well, treated with different concentrations of compounds in triplicate and incubated for 72 h. After incubation with the compounds the XTT labeling mixture (100 μl) were added to each of the wells and after a 4 h incubation period the plates were read at 450 nm on an ELISA plate reader. […] Known for its cytotoxic activity, betulinic acid 2 was used as a positive control in this experimentation. […] All the IC50 results represent an average of a minimum of three experiments and were expressed as means±standard deviation (SD).

[2] = system: Jurkat (human leukemia); experiment: Cytotoxic activity, XTT assay, Jurkat
Protocol: as §1

[3] = system: HeLa (human cervical adenocarcinoma); experiment: Cytotoxic activity, MTT assay, HeLa
Protocol: The cytotoxic of compounds of formulas (I) and (II) 14-50 was assessed towards human cancer (HepG2, HeLa and Jurkat) cell lines (Table 3 below). Compounds presented on Table 4 were also tested against a non-tumoral liver cell line (Chang liver). The cell viability of HeLa, HepG2 and Chang liver cells was determined by the MTT assay. Briefly, exponentially growing cells were plated in 96-well plates at a density of 1×10^3, 8×10^3 and 5×10^3 cells/well respectively and incubated for 24 h before treatment. The grown medium was replaced with one contained the tested compounds dissolved in DMSO (final DMSO concentration <0.1%) at different concentrations, in triplicate wells, and cells were incubated for 72 h. After incubation with the compounds, the medium was removed and MTT solution (0.5 mg/ml, 100 μl) was added to each well and the plates were incubated again for 1 h. DMSO (100 μl) was then added to dissolve the formazan crystals and the plates were immediately read at 550 nm on an ELISA plate reader (Tecan Sunrise MR20-301, TECAN, Austria). For the Jurkat cells, the cell viability was determined by the XTT assay. Briefly, exponentially growing cells were plated in 96-well plates at a density of 5.5×10^3 cells/well, treated with different concentrations of compounds in triplicate and incubated for 72 h. After incubation with the compounds the XTT labeling mixture (100 μl) were added to each of the wells and after a 4 h incubation period the plates were read at 450 nm on an ELISA plate reader. […] Known for its cytotoxic activity, betulinic acid 2 was used as a positive control in this experimentation.

[4] = system: Chang liver (human normal liver cells); experiment: Cytotoxic activity against non-tumoral cell line, MTT assay
Protocol: as §1

| Structure (SMILES) | IC50 [1] | IC50 [2] | IC50 [3] | IC50 [4] |
| --- | --- | --- | --- | --- |
| C=C(C)[C@@H]1CC[C@]2(COC(C)=O)CC[C@]3(C)[C@H](CC[C@@H]4[C@@]5(C)CC[C@H](OC(=O)n6ccnc6C)C(C)(C)[C@@H]5CC[C@]43C)[C@@H]12 [Compound 26, 28-acetoxy-lup-20(29)-en-3β-yl-2′-methyl-1H-imidazole-1-carboxylate] | > 30 µM | > 30 µM | > 30 µM |  |
| C=C(C)C1CCC2(C(=O)n3cncn3)CCC3(C)C(CCC4C5(C)CCC(OC(=O)n6cncn6)C(C)(C)C5CCC43C)C12 (stereo not drawn) [Compound 32, 28-(1H-triazole-1-yl)-28-oxo-lup-20(29)-en-3β-yl-1H-triazole-1-carboxylate] |  |  | 14.5 ± 3.2 µM |  |
| C=C(C)[C@@H]1CC[C@]2(COC(=O)n3ccnc3C)CC[C@]3(C)[C@H](CC[C@@H]4[C@@]5(C)CC[C@H](OC(=O)n6ccnc6C)C(C)(C)[C@@H]5CC[C@]43C)[C@@H]12 [Compound 18, Lup-20(29)-en-3β,28-di-yl-(2′-methyl-1H-imidazole-1-carboxylate)] | > 30 µM | > 30 µM | > 30 µM |  |
| C=C(COC)[C@@H]1CC[C@]2(COC(=O)n3ccnc3C)CC[C@]3(C)[C@H](CC[C@@H]4[C@@]5(C)CC[C@H](OC(=O)n6ccnc6C)C(C)(C)[C@@H]5CC[C@]43C)[C@@H]12 [Compound 39, 30-methoxylup-20(29)-en-3β,28-di-yl-(2′-methyl-1H-imidazole-1-carboxylate)] | 28.2 ± 2.5 µM | > 30 µM | 13.4 ± 0.6 µM |  |
| C=C(C)[C@@H]1CC[C@]2(COC(=O)n3ccnc3C)CC[C@]3(C)[C@H](CC[C@@H]4[C@@]5(C)CC[C@H](OC(C)=O)C(C)(C)[C@@H]5CC[C@]43C)[C@@H]12 [Compound 23, 3β-acetoxy-lup-20(29)-en-28-yl-2′-methyl-1H-imidazole-1-carboxylate] | > 30 µM | > 30 µM | > 30 µM |  |
| C=C(C)[C@@H]1CC[C@]2(COC(=O)n3ccnc3)CC[C@]3(C)[C@H](CC[C@@H]4[C@@]5(C)CC[C@H](OC(C)=O)C(C)(C)[C@@H]5CC[C@]43C)[C@@H]12 [Compound 22, 3β-acetoxy-lup-20(29)-en-28-yl-1H-imidazole-1-carboxylate] | > 30 µM | > 30 µM | > 30 µM |  |
| C=C(C)[C@@H]1CC[C@]2(COC(=O)n3cncn3)CC[C@]3(C)[C@H](CC[C@@H]4[C@@]5(C)CC[C@H](OC(C)=O)C(C)(C)[C@@H]5CC[C@]43C)[C@@H]12 [Compound 24, 3β-acetoxy-lup-20(29)-en-28-yl-1H-triazole-1-carboxylate] |  |  | 23.2 ± 2.1 µM |  |
| C=C(C)[C@@H]1CC[C@]2(COC(C)=O)CC[C@]3(C)[C@H](CC[C@@H]4[C@@]5(C)CC[C@H](OC(=O)n6ccnc6)C(C)(C)[C@@H]5CC[C@]43C)[C@@H]12 [Compound 25, 28-acetoxy-lup-20(29)-en-3β-yl-1H-imidazole-1-carboxylate] | > 30 µM | > 30 µM | > 30 µM |  |
| C=C(COC)[C@@H]1CC[C@]2(COC(=O)n3cncn3)CC[C@]3(C)[C@H](CC[C@@H]4[C@@]5(C)CC[C@H](O)C(C)(C)[C@@H]5CC[C@]43C)[C@@H]12 [Compound 37, 3β-hydroxy-30-methoxylup-20(29)-en-28-yl-1H-triazole-1-carboxylate] |  |  | 13.8 ± 2.3 µM |  |
| C=C(C)[C@@H]1CC[C@]2(C(=O)n3ccnc3)CC[C@]3(C)[C@H](CC[C@@H]4[C@@]5(C)C=C(O)C(=O)C(C)(C)[C@@H]5CC[C@]43C)[C@@H]12 [Compound 48, 2-hydroxy-28-(1H-imidazol-1-yl)-lup-1,20(29)-dien-3,28-dione] | 6.5 ± 0.4 µM | 7 ± 1.6 µM | 4.6 ± 0.7 µM | 62.8 ± 10.3 µM |
| C=C(C)C1CCC2(COC(C)=O)CCC3(C)C(CCC4C5(C)CCC(OC(=O)n6cncn6)C(C)(C)C5CCC43C)C12 (stereo not drawn) [Compound 27, 28-acetoxy-lup-20(29)-en-3β-yl-1H-triazole-1-carboxylate] |  |  | > 30 µM |  |
| C=C(C)[C@@H]1CC[C@]2(C(=O)OC)CC[C@]3(C)[C@H](CC[C@@H]4[C@@]5(C)CC[C@H](OC(=O)n6ccnc6)C(C)(C)[C@@H]5CC[C@]43C)[C@@H]12 [Compound 33, Methyl 3β-(1H-imidazole-1-carbonyloxy)-lup-20(29)-en-28-oate] | 4.3 ± 0.1 µM | 9.9 ± 0.6 µM | 8.2 ± 0.5 µM | 73.9 ± 3.6 µM |
| C=C(C)[C@@H]1CC[C@]2(C(=O)n3ccnc3)CC[C@]3(C)[C@H](CC[C@@H]4[C@@]5(C)C=C(OC(=O)n6ccnc6)C(=O)C(C)(C)[C@@H]5CC[C@]43C)[C@@H]12 [Compound 49, 2-(1H-imidazole-1-carbonyloxy)-28-(1H-imidazol-1-yl)-lup-1,20(29)-dien-3,28-dione] | 4 ± 0.3 µM | 8.1 ± 0.6 µM | 3.9 ± 0.3 µM | 71.6 ± 4.9 µM |
| C=C(COC)C1CCC2(COC(=O)n3cncn3)CCC3(C)C(CCC4C5(C)CCC(OC(=O)n6cncn6)C(C)(C)C5CCC43C)C12 (stereo not drawn) [Compound 40, 30-methoxylup-20(29)-en-3β,28-di-yl-(1H-triazole-1-carboxylate)] |  |  | > 30 µM |  |
| C=C(C)[C@@H]1CC[C@]2(CO)CC[C@]3(C)[C@H](CC[C@@H]4[C@@]5(C)CC[C@H](OC(=O)n6cncn6)C(C)(C)[C@@H]5CC[C@]43C)[C@@H]12 [Compound 21, 28-hydroxy-lup-20(29)-en-3β-yl-1H-triazole-1-carboxylate] |  |  | 11.3 ± 1.9 µM |  |
| C=C(C)[C@@H]1CC[C@]2(COC(=O)n3cncn3)CC[C@]3(C)[C@H](CC[C@@H]4[C@@]5(C)CC[C@H](O)C(C)(C)[C@@H]5CC[C@]43C)[C@@H]12 [Compound 16, 3β-hydroxy-lup-20(29)-en-28-yl-1H-triazole-1-carboxylate] |  |  | 15.2 ± 2.1 µM |  |
| C=C(C)C1CCC2(COC(=O)n3cncn3)CCC3(C)C(CCC4C5(C)CCC(OC(=O)n6cncn6)C(C)(C)C5CCC43C)C12 (stereo not drawn) [Compound 19, Lup-20(29)-en-3β,28-di-yl-(1H-triazole-1-carboxylate)] |  |  | > 30 µM |  |

Source: patent US8969395B2, “Triterpenoid derivatives useful as antiproliferative agents” (Universidade de Coimbra, priority 2009, dated 2015)
